Data on one compound can be found in paper PMC8921294, “Inhibition of mitochondrial LonP1 protease by allosteric blockade of ATP binding and hydrolysis via CDDO and its derivatives” (The Journal of Biological Chemistry, 2022).

Positions count from the first letter of the chain named.

The target of one assay is T1, LonP1 F547A (Homo sapiens, UniProt P36776, F547A).
T1 construct: hexa-histidine (N); made in house; host or cells: Rosetta 2 E. coli
T1 sequence (P36776 68-959 F547A): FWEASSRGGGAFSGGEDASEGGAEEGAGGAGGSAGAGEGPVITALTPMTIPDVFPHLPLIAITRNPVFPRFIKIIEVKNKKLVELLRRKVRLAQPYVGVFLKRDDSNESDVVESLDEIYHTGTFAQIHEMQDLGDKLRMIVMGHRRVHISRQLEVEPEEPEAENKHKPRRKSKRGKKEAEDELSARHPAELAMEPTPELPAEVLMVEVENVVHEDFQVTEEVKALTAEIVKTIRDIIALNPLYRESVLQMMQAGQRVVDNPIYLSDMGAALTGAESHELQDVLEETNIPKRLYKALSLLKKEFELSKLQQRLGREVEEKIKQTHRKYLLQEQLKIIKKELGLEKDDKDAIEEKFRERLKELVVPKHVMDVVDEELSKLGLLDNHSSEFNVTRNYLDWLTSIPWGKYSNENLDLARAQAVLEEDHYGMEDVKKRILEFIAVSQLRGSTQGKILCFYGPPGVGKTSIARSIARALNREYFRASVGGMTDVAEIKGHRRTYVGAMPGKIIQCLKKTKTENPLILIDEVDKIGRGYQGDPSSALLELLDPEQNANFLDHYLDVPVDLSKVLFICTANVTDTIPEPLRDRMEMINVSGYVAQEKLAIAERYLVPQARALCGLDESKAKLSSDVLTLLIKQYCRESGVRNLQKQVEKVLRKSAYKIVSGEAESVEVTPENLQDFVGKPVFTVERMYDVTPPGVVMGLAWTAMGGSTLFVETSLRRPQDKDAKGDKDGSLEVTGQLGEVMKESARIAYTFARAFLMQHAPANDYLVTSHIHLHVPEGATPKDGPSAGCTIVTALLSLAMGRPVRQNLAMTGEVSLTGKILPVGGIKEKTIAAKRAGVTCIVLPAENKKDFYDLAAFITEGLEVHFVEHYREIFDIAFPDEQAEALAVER
As to the kind of experiment: Endpoint ATPase assay, LonP1 F547A. It counts as biochemical. Here is the method: (§1) Human mitochondrial LonP1 and mutants lacking the predicted mitochondrial targeting sequence were fused to an N-terminal hexa-histidine affinity tag, expressed in Rosetta 2 E. Coli, and purified using a nickel agarose column as previously described ([72]) and protein concentration and buffer exchange carried out using Amicon Ultra centrifugal filtration. LonP1 mutant constructs were obtained from the PCR-based QuikChange Site-Directed Mutagenesis Kit.
(§2) ADP-Glo (Promega) assays were performed according to the manufacturer's protocols. Purified wild-type or mutant LonP1 (400 nM monomer), the 26S proteasome (3 nM), or no enzyme controls were preincubated in 96-well plates (60 min, 25 °C) with ten different concentrations of CDDO and its derivatives, TP-82, enoxolone (5 μM) or DMSO vehicle control in buffer (40 mM Tris-HCl (pH 7.5), 20 mM MgCl2, 0.1 mg/ml BSA and 5% DMSO). The 26S and 20S proteasome were also assayed at 0, 0.75, 1.5, 3, 6, and 12 nM in the absence of CDDO derivatives. […] Assay reagents were used to quench further ATPase activity and generate luminescence signals proportional to the concentration of ADP formed. Background (no enzyme control) luminescence values were subtracted, and resultant values were reported as a percentage of the no drug control (100%). […]

The target of a further assay is T2, LonP1 C637S (Homo sapiens, UniProt P36776, C637S).
T2 construct: hexa-histidine (N); made in house; host or cells: Rosetta 2 E. coli
T2 sequence (P36776 68-959 C637S): T1 sequence (P36776 68-959 F547A) with A480F, C570S
In words: Endpoint ATPase assay, LonP1 C637S. It is filed as biochemical. Here is the method:
as §1, §2

Take `CC1(C)CC[C@]2(C(=O)O)CC[C@]3(C)[C@H](C(=O)C=C4[C@@]5(C)C=C(C#N)C(=O)C(C)(C)[C@@H]5CC[C@]43C)[C@@H]2C1` [CDDO, 2-cyano-3,12-dioxooleana-1,9(11)-dien-28-oic acid]: the “Fold increase in inhibition compared with WT” value on LonP1 F547A was found to be 2.4; on LonP1 C637S, 4.7. Further, the IC50 (as a rule, the concentration needed to halve the response being measured) stood at 5.9 ± 0.6 µM at LonP1 F547A (end-point ATPase assay, read-out: CDDO IC50) and 3 µM at LonP1 C637S (end-point ATPase assay, N = 1, read-out: CDDO IC50).
